According to patent US20210139844A1, “REPROGRAMMING FIBROBLASTS TO RETINAL CELLS” (UNIVERSITY OF NORTH TEXAS HEALTH SCIENCE CENTER, priority 2017, published 2021):
Entries after “also recorded” stand apart in the source; their conditions may differ.

B1: GDNF: factor added during human cell reprogramming (protein, UniProt P39905 78-211, looked up)
Glial cell line-derived …: SPDKQMAVLPRRERNRQAAAANPENSRGKGRRGQRGKNRGCVLTAIHLNVTDLGLGYETKEELIFRYCSGSCDAAETTYDKILKNLSRNRRLVSDKVGQACCRPIAFDDDLSFLDDNLVYHILRKHSAKRCGCI
B2: BDNF: factor added during human cell reprogramming (protein, UniProt P23560 129-247, looked up)
Neurotrophic factor BDNF: HSDPARRGELSVCDSISEWVTAADKKTAVDMSGGTVTVLEKVPVSKGQLKQYFYETKCNPMGYTKEGCRGIDKRHWNSQCRTTQSYVRALTMDSKKRIGWRFIRIDTSCVCTLTIKRGR
modifications: Neurotrophic factor BDNF
notes: factor added during human cell reprogramming
B3: NT3: factor added during human cell reprogramming (protein, UniProt P20783 139-257, looked up)
Neurotrophin-3: YAEHKSHRGEYSVCDSESLWVTDKSSAIDIRGHQVTVLGEIKTGNSPVKQYFYETRCKEARPVKNGCRGIDDKHWNSQCKTSQTYVRALTSENNKLVGWRWIRIDTSCVCALSRKIGRT
modifications: Neurotrophin-3
notes: as for B2

Assays:
Nrl-GFP MEFs = experiment: Chemical reprogramming of Nrl-GFP MEFs to photoreceptor like cells (Nrl-GFP reporter); format: cell-based, mouse; details: for effect on reprogramming of removing the small molecule from the cocktail: small molecule subtracted from cocktail
Description: Identification of small molecules for derivation of photoreceptor-like cells (CiPPC). […] The inventors have exploited this phenomenon to find out additional small molecules those might be important for the determination of retinal neuron specific fate. An array of small molecule along with different medium compositions and time points has been tested as possible candidates. Mouse Embryonic Fibroblasts (MEFs) from a photoreceptor specific reporter mouse (Nrl-GFP) are used as starting cells for the reprogramming studies (Akimoto et al., PNAS 103:3890-95, 2006). If converted to photoreceptors, these MEFs would have GFP expression from the Nrl promoter. […] This conversion requires three additional factors Sonic Hedgehog (S), Taurine (T) and Retinoic acid (R) introduced on day 8 (d8) (FIG. 1A and FIG. 1B). […] The inventors have tested the importance of each small molecule in the reprogramming process by using Nrl-GFP MEFs as starting cells.
All small molecules diluted in DMSO according to manufacturer's instruction. On day 0 about 35000 MEFs were seeded in each well of a 24 well plate (0.1% gelatin coated for O/N). At day 1 change the medium with photoreceptor induction medium (PIM) with V (0.5 mM), C (4.8 μM), R (2 μM) F (10 βM). On day 3 change the medium (PIM) with V, C, R, F plus IWR1 (I, 10 βM). Change the medium (PIM) with VCRFI on d5 and d6. On day 8 add Sonichedgehog (S, 3 nM), taurine molecules and factors. Finally on day 11 cells with GFP expression were observed. For the differentiation replace the medium with photoreceptor differentiation medium (PDM) and keep them up to d15 to d16. […] Cells were fixed or analyzed on day 7.

mitochondrial ROS = experiment: Measurement of mitochondrial ROS (MitoSox staining, fluorometry); format: cell-based, mouse
Description: Mitochondrial ROS activates NF-kB which controls CiPPC reprogramming by retrograde signaling. Next the inventors investigated the reasons behind NFkβ activation. Known inducers of NF-kB are highly variable including TNFα, LPS, Ionizing radiation and mitochondrial ROS (Formentini et al., Mol Cell 45:731-42, 2012; Andreakos et al., Blood 103:2229-37, 2004). […] So the inventors contemplated that mitochondrial ROS generated by small molecule treatment may activate NF-kB. […] The inventors found increased accumulation of mitochondrial ROS indicator mitosox during reprogramming starting from d5 compared to control MEFs (FIG. 6A, FIG. 6B and FIG. 6C). To measure the importance of mROS during chemical reprogramming, conversion experiments were performed in the presence of mitochondrial ROS scavenger, mitotempo.
Measurement of mitochondrial ROS. Mitochondrial ROS was detected and quantified. […] Cells were then washed twice with PBS and fluorescence has been monitored with a microplate reader set to 510 nm excitation (Ex bandwidth: 10 nm) and 595 nm emission (Em bandwidth 35 nm) wavelengths. mROS generation was also micrographed by Leica fluorescence microscope an quantified in Leica Application Suite X Software. […] Average intensity within each ROI was measured and exported to Excel data sheet. Average change in fluorescence was calculated for each type of cells. […]

HepG2 cells = details: treated for several days; cited from earlier work
HFL1-Nrl-DsRed cells = experiment: Chemical reprogramming of human HFL1-Nrl-DsRed fibroblasts to photoreceptor like cells; format: cell-based; details: added during reprogramming
Description: Identification of small molecules for derivation of photoreceptor-like cells (CiPPC). To identify small molecules responsible for retinal neuron specific fate, the inventors followed previous studies describing a set of small molecules that can convert fibroblasts into neurons (Hu et al., Cell stem cell 17:204-12, 2015; Zhang et al., Cell stem cell 17:735-47, 2015; Fu et al., Cell research 25, 2015; Cheng et al., Cell research 25:1269-72, 2015). Four out of six small molecules described in these studies, Valproic acid (V), CHIR(C), Repsox (R) and Forskolin(F), are able to convert fibroblast cells into mixed progenitor stage (Fu et al., Cell research 25, 2015). The inventors have exploited this phenomenon to find out additional small molecules those might be important for the determination of retinal neuron specific fate. An array of small molecule along with different medium compositions and time points has been tested as possible candidates. Mouse Embryonic Fibroblasts (MEFs) from a photoreceptor specific reporter mouse (Nrl-GFP) are used as starting cells for the reprogramming studies (Akimoto et al., PNAS 103:3890-95, 2006). If converted to photoreceptors, these MEFs would have GFP expression from the Nrl promoter. […] This conversion requires three additional factors Sonic Hedgehog (S), Taurine (T) and Retinoic acid (R) introduced on day 8 (d8) (FIG. 1A and FIG. 1B). Human fibroblasts (HFL1, ATCC CCL153) can also be converted into photoreceptor like cells by these small molecules. The inventors first generated a HFL-1 cell line having a lentivirally transduced DsRed reporter downstream of Nrl promoter. Drug selected HFL1-Nrl-DsRed cells were used for the reprogramming by the previously described mouse specific protocol with some modifications (FIG. 1C). Round shaped and neuron like Nrl promoter driven DsRed positive cells were evident starting from d6 to d8 (FIG. 1D). […]
All small molecules diluted in DMSO according to manufacturer's instruction. […] Cells were fixed or analyzed on day 7.

Molecule | effect on reprogramming of removing the small molecule from the cocktail (Nrl-GFP MEFs) | morphology of converted human photoreceptor like cells (HFL1-Nrl-DsRed cells) | also measured
CC1(C)CC(NC(=O)C[P+](c2ccccc2)(c2ccccc2)c2ccccc2)CC(C)(C)N1[O] [mitotempo] | – | – | yield of reprogrammed cells (Nrl-GFP MEFs; conversion in presence of mROS scavenger, printed as 'significantly decreased yield ... (20%)'): 20%; number of Nrl-GFP+ reprogrammed cells at different concentrations (Nrl-GFP MEFs; data not shown): dose dependent relationship; mROS generation upon scavenger treatment (mitochondrial ROS; mitoSox staining, fluorometric analysis): decrease of mROS generation
Cc1cccc(-c2n[nH]cc2-c2ccc3ncccc3n2)n1 [Repsox, 2-(3-(6-Methylpyridin-2-yl)-1H-pyrazol-4-yl)-1,5-naphthyridine] | worst effect on reprogramming process | – | –
O=C(Nc1cccc2cccnc12)c1ccc(N2C(=O)[C@@H]3[C@H](C2=O)[C@@H]2C=C[C@H]3C2)cc1 [IWR1, N-(Quinolin-8-yl)-4-(exo-4-aza-3,5-dioxotricyclo[5.2.1.02,6]oct-8-en-4-yl)benzamide] | worst effect on reprogramming process; also recorded: reduced the reprogramming efficiency | – | conversion of GFP negative MEFs into GFP+ photoreceptor like cells (Nrl-GFP MEFs; in presence of VCRF, d10 to d11, S, T, R introduced on d8): can covert GFP negative MEFs into GFP^+ positive round shaped photoreceptor like cells; mROS generation in reprogramming without the small molecule (mitochondrial ROS; d8): did not show increase in mROS generation
Oc1nc(-c2ccc(C(F)(F)F)cc2)nc2c1CSCC2 [XAV939] | – | – | axin stabilization (HepG2 cells): can also stabilize the axin at cytosol
Cc1cnc(-c2cnc(NCCNc3ccc(C#N)cn3)nc2-c2ccc(Cl)cc2Cl)[nH]1 [CHIR, 6-[2-[[4-(2,4-dichlorophenyl)-5-(5-methyl-1H-imidazol-2-yl)pyrimidin-2-yl]amino]ethylamino]-pyridine-3-carbonitrile] | worst effect on reprogramming process | – | –
B1 | – | helped these converted human photoreceptor like cells to have a healthy morphology | –
B2 | – | helped these converted human photoreceptor like cells to have a healthy morphology | –
B3 | – | helped these converted human photoreceptor like cells to have a healthy morphology | –
